Experimental data taken from patent publication US8354436B2 (4SC Discovery GmbH, priority 2011, dated 2013).
pIC50: −log10 of the molar value. Like-named read-outs stand apart in the source and are kept apart here.

How the values were obtained:
Assay type in all cases: cell-based
IL-17AA = IL-17AA production by PHA-stimulated human PBMC (human homodimer IL-17A ELISA); details: 48 hours
Method: Analysis of Proliferation of and Cytokine Production by Human PBMC Stimulated with PHA
Peripheral blood mononuclear cells (PBMC) from healthy human donors were purified using Accuspin™ System-Histopaque-1077 (Sigma) according to the protocol recommended by the manufacturer. Purified PBMC were then washed twice with phosphate-buffered saline (PBS) and resuspended in RPMI1640 culture medium supplemented with 10% dialyzed heat inactivated fetal calf serum, 1.5 mM L-glutamine, 100 U penicillin/ml, and […] (all from PAN Biotech, Aidenbach, Germany). For stimulation, PBMC were seeded at 1×10^5 cells/well, activated with 2 μg/ml phytohaemagglutinin (PHA, Sigma) and incubated with the test compounds for 48 hours. IL-17A, IL-17F and INF-γ were then determined in the culture supernatant using a Luminex BioPlex system, following the manufacturer's instructions (BioRad, Munich, Germany). For screening, compounds were used at 10, 1, 0.1 and 0.01 μM. To determine the IC50, compounds were titrated semilogarithmically.
Cytokines were determined in the aforementioned culture supernatant using the following methods: IL-17AA/AF was measured using the Luminex BioPlex system (BioRad, Munich, Germany); IL-17AA using the human homodimer IL-17A ELISA Ready Set Go Kit from eBioscience (Frankfurt, Germany); IL-17FF using the human IL-17F ELI-Pair from Hölzel DiagnosticaGmBH (Köln, Germany); and IFN-γ using the OptEIA human IFN-g ELISA from BD Bioscience (Heidelberg, Germany), all following the manufacturer's instructions.

IL-17FF = IL-17FF production by PHA-stimulated human PBMC (human IL-17F ELI-Pair)
Method in brief: (§1)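 Supernatant cytokine levels are read by bead-based Luminex or sandwich ELISA after 48 h culture of PHA-stimulated (2 μg/ml) human PBMC with compound. Cells are seeded at 1×10^5 per well; IC50 values derive from semilogarithmic dilution series.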

[1] = test system: PBMC from healthy human donors; test: T cell proliferation assay (PHA-stimulated human PBMC, BrdU ELISA); details: 48 hours
Method in brief: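 Healthy-donor PBMC isolated on Ficoll, seeded at 1×10⁵ cells/well in RPMI with 10% dialysed FCS, stimulated with 2 μg/ml PHA in presence of test compound. Proliferation read after 48 hours by BrdU-incorporation ELISA.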

IFN-γ = IFN-γ production by PHA-stimulated human PBMC (OptEIA human IFN-g ELISA)
Method in brief: as §1

[2] = human PBMC, 2 μg/ml PHA, read-out: A: IC50 (IL-17AA)
[3] = human PBMC, 2 μg/ml PHA, 48 hours, read-out: B: IC50 (IL-17FF)
[4] = human PBMC, 2 μg/ml PHA, read-out: D: IC50 (Tcell proliferation)
[5] = human PBMC, 2 μg/ml PHA, 48 hours, read-out: C: IC50 (IFNγ)
[6] = PHA-stimulated human PBMC, column A, values without *, read-out: IC50 (IL-17AA)
[7] = PHA-stimulated human PBMC, 48 hours, column B, read-out: IC50 (IL-17FF)
[8] = PHA-stimulated human PBMC, column D, read-out: IC50 (Tcell proliferation)
[9] = PHA-stimulated human PBMC, 48 hours, column C, read-out: IC50 (IFNγ)

| pIC50 (IL-17FF; [3]) | pIC50 (IFN-γ; [5]) | pIC50 (IL-17FF; [7]) | pIC50 (IFN-γ; [9]) | SMILES | pIC50 [1, 4] | pIC50 [1, 8] | further results |
| --- | --- | --- | --- | --- | --- | --- | --- |
| 7.00 to 8.00 | 7.00 to 8.00 |  |  | COC(=O)c1csc(-c2c(-c3c(F)cccc3Cl)noc2-c2cnn(-c3cccc(F)c3)c2C(F)(F)F)n1 [Example B-2, methyl 2-(3-(2-chloro-6-fluorophenyl)-5-(1-(3-fluorophenyl)-5-(trifluoromethyl)-1H-pyrazol-4-yl)isoxazol-4-yl)thiazole-4-carboxylate] | 6.00 to 7.00 |  | pIC50 (IL-17AA; [2]): 6.00 to 7.00 |
| 6.00 to 7.00 | 5.00 to 6.00 |  |  | Fc1cccc(-n2ncc(-c3onc(-c4c(F)cccc4Cl)c3-c3ccoc3)c2C(F)(F)F)c1 [Example 13, 3-(2-chloro-6-fluorophenyl)-5-(1-(3-fluorophenyl)-5-(trifluoromethyl)-1H-pyrazol-4-yl)-4-(furan-3-yl)isoxazole] | 5.00 to 6.00 |  | pIC50 (IL-17AA; [2]): 5.00 to 6.00 |
|  |  | 5.00 to 6.00 | 5.00 to 6.00 | CNC(=O)c1c(-c2c(F)cccc2Cl)noc1-c1cnn(-c2ccccc2F)c1C(F)(F)F [Example I-19, 3-(2-chloro-6-fluorophenyl)-5-(1-(2-fluorophenyl)-5-(trifluoromethyl)-1H-pyrazol-4-yl)-N-methylisoxazole-4-carboxamide] |  | 5.00 to 6.00 | pIC50 (IL-17AA; [6]): 5.00 to 6.00 |
|  |  | 7.00 to 8.00 | 6.00 to 7.00 | CNC(=O)c1c(-c2c(F)cccc2Cl)noc1-c1cnn(-c2cccc(Cl)c2)c1C(F)(F)F [Example I-32, 3-(2-chloro-6-fluorophenyl)-5-(1-(3-chlorophenyl)-5-(trifluoromethyl)-1H-pyrazol-4-yl)-N-methylisoxazole-4-carboxamide] |  | 7.00 to 8.00 | pIC50 (IL-17AA; [6]): 6.00 to 7.00 |
| 6.00 to 7.00 | 7.00 to 8.00 |  |  | Cc1nnc(-c2c(-c3c(F)cccc3Cl)noc2-c2cnn(-c3ccccc3F)c2C(F)(F)F)o1 [Example 11, 2-(3-(2-chloro-6-fluorophenyl)-5-(1-(2-fluorophenyl)-5-(trifluoromethyl)-1H-pyrazol-4-yl)isoxazol-4-yl)-5-methyl-1,3,4-oxadiazole] | 6.00 to 7.00 |  | pIC50 (IL-17AA; [2]): 5.00 to 6.00 |
|  |  | > 8.00 | > 8.00 | COC(=O)c1c(-c2c(F)cccc2Cl)noc1-c1cnn(-c2cccc(Cl)c2)c1C(F)(F)F [Example I-11, methyl 3-(2-chloro-6-fluorophenyl)-5-(1-(3-chlorophenyl)-5-(trifluoromethyl)-1H-pyrazol-4-yl)isoxazole-4-carboxylate] |  | > 8.00 | pIC50 (IL-17AA; [6]): > 8.00 |
| 6.00 to 7.00 | 6.00 to 7.00 |  |  | Cc1nnc(-c2c(-c3c(F)cccc3Cl)noc2-c2cnn(-c3ccncc3)c2C(F)(F)F)o1 [Example B-19, 2-(3-(2-chloro-6-fluorophenyl)-5-(1-(pyridin-4-yl)-5-(trifluoromethyl)-1H-pyrazol-4-yl)isoxazol-4-yl)-5-methyl-1,3,4-oxadiazole] | 6.00 to 7.00 |  |  |
|  |  | 7.00 to 8.00 | 7.00 to 8.00 | CCOC(=O)c1c(-c2c(F)cccc2Cl)noc1-c1cnn(CC2CCCO2)c1C(F)(F)F (stereo not drawn) [IB-96, ethyl 3-(2-chloro-6-fluorophenyl)-5-(1-((tetrahydrofuran-2-yl)methyl)-5-(trifluoromethyl)-1H-pyrazol-4-yl)isoxazole-4-carboxylate] |  | 7.00 to 8.00 |  |
|  |  | 6.00 to 7.00 | 6.00 to 7.00 | CNC(=O)c1c(-c2c(F)cccc2Cl)noc1-c1cnn(-c2ccccc2)c1C(F)(F)F [Example I-59, 3-(2-chloro-6-fluorophenyl)-N-methyl-5-(1-phenyl-5-(trifluoromethyl)-1H-pyrazol-4-yl)isoxazole-4-carboxamide] |  | 6.00 to 7.00 |  |
|  |  | 5.00 to 6.00 | 6.00 to 7.00 | O=C(NCc1ccccc1C(F)(F)F)c1c(-c2c(F)cccc2Cl)noc1-c1cnn(-c2ccccc2F)c1C(F)(F)F [Example I-23, 3-(2-chloro-6-fluorophenyl)-5-(1-(2-fluorophenyl)-5-(trifluoromethyl)-1H-pyrazol-4-yl)-N-(2-(trifluoromethyl)ben-zyl)isoxazole-4-carboxamide] |  | 5.00 to 6.00 |  |
|  |  |  |  | CCOC(=O)c1c(-c2c(F)cccc2Cl)noc1-c1cnn(-c2ccccc2Cl)c1C(F)(F)F [IB-33, ethyl 3-(2-chloro-6-fluorophenyl)-5-(1-(2-chlorophenyl)-5-(trifluoromethyl)-1H-pyrazol-4-yl)isoxazole-4-carboxylate] |  | 6.00 to 7.00 | pIC50 (IL-17FF; Homo sapiens, PBMC, 48 h, read-out: IC50 (IL-17FF)): 6.00 to 7.00; pIC50 (IFN-γ; Homo sapiens, PBMC, 48 h, read-out: IC50 (IFNγ)): 6.00 to 7.00 |
| 6.00 to 7.00 | 7.00 to 8.00 |  |  | Fc1cccc(-n2ncc(-c3onc(-c4c(F)cccc4Cl)c3-c3ccccc3)c2C(F)(F)F)c1 [Example 14, 3-(2-chloro-6-fluorophenyl)-5-(1-(3-fluorophenyl)-5-(trifluoromethyl)-1H-pyrazol-4-yl)-4-phenylisoxazole] | 6.00 to 7.00 |  |  |
| 7.00 to 8.00 | 7.00 to 8.00 |  |  | Cc1nnc(-c2c(-c3c(F)cccc3Cl)noc2-c2cnn(-c3ccccn3)c2C(F)(F)F)s1 [Example B-27, 3-(2-chloro-6-fluorophenyl)-4-(5-methyl-1,3,4-thiadiazol-2-yl)-5-(1-(pyridin-2-yl)-5-(trifluoromethyl)-1H-pyrazol-4-yl)isoxazole] | 7.00 to 8.00 |  |  |
|  |  | 5.00 to 6.00 | 5.00 to 6.00 | COC(=O)c1c(-c2ccc(Cl)cc2Cl)noc1-c1cnn(-c2cccc(F)c2)c1C(F)(F)F [Example I-111, methyl 3-(2,4-dichlorophenyl)-5-(1-(3-fluorophenyl)-5-(trifluoromethyl)-1H-pyrazol-4-yl)isoxazole-4-carboxylate] |  | 6.00 to 7.00 |  |
|  |  | 6.00 to 7.00 | 6.00 to 7.00 | CCOC(=O)c1c(-c2c(F)cccc2Cl)noc1-c1cnn(-c2ccccc2Br)c1C(F)(F)F [IB-72, ethyl 5-(1-(2-bromophenyl)-5-(trifluoromethyl)-1H-pyrazol-4-yl)-3-(2-chloro-6-fluorophenyl)isoxazole-4-carboxylate] |  | 6.00 to 7.00 |  |
| 6.00 to 7.00 | 6.00 to 7.00 |  |  | COc1cccc(Cl)c1-c1noc(-c2cnn(-c3ccccc3Cl)c2C(F)(F)F)c1-c1cnco1 [Example B-34, 3-(2-chloro-6-methoxyphenyl)-5-(1-(2-chlorophenyl)-5-(trifluoromethyl)-1H-pyrazol-4-yl)-4-(oxazol-5-yl)isoxazole] | 6.00 to 7.00 |  |  |
|  |  | 5.00 to 6.00 | 5.00 to 6.00 | CC(C)OC(=O)c1c(-c2c(F)cccc2Cl)noc1-c1cnn(-c2ccccc2Cl)c1C(F)(F)F [IB-60] |  | 5.00 to 6.00 |  |
|  |  | 5.00 to 6.00 | 6.00 to 7.00 | CCOC(=O)c1c(-c2c(F)cccc2Cl)noc1-c1cnn(-c2ccccc2NC(C)=O)c1C(F)(F)F [IB-1] |  | 5.00 to 6.00 |  |
|  |  | 6.00 to 7.00 | 5.00 to 6.00 | CCOC(=O)c1c(-c2c(Cl)cncc2Cl)noc1-c1cnn(-c2ccccc2Cl)c1C(F)(F)F [IB-16, ethyl 5-(1-(2-chlorophenyl)-5-(trifluoromethyl)-1H-pyrazol-4-yl)-3-(3,5-dichloropyridin-4-yl)isoxazole-4-carboxylate] |  | 5.00 to 6.00 |  |
|  |  | 7.00 to 8.00 | 7.00 to 8.00 | COC(=O)c1c(-c2c(F)cccc2Cl)noc1-c1cnn(CC(C)C)c1C(F)(F)F [Example I-28] |  | 6.00 to 7.00 |  |

| SMILES | pIC50 (IL-17FF; [3]) | pIC50 (IFN-γ; [5]) | pIC50 (IL-17FF; [7]) | pIC50 (IFN-γ; [9]) | pIC50 [1, 4] | pIC50 [1, 8] | further results |
| --- | --- | --- | --- | --- | --- | --- | --- |
| CC(=O)Nc1cccc(-n2ncc(-c3onc(-c4c(F)cccc4Cl)c3-c3nnc(C)s3)c2C(F)(F)F)c1 [Example B-12, N-(3-(4-(3-(2-chloro-6-fluorophenyl)-4-(5-methyl-1,3,4-thiadiazol-2-yl)isoxazol-5-yl)-5-(trifluoromethyl)-1H-pyrazol-1-yl)phenyl)acetamide] | 5.00 to 6.00 | 6.00 to 7.00 |  |  | 5.00 to 6.00 |  |  |
